In brackets after ≈: the same amount, converted by molar mass. Like-named read-outs stand apart in the source and are kept apart here.
Experiments:
[1] = test system: stage 59-60 Xenopus tadpole; assay: Xenopus tadpole assay; settings: in vivo
[2] = test system: E. coli; assay: antibiotic activity (MIC); type: cell-based; settings: Escherichia coli; E. coli; read-out: MIC
Excerpt: (§1) Thus, it is possible to achieve an antimicrobial steroid with or without squalamine-like pharmacological activity.

[3] = test system: S. aureus; assay: antibiotic activity (MIC); type: cell-based; settings: Staphylococcus aureus; S. aureus; read-out: MIC
Excerpt: as §1

[4] = test system: C. albicans; assay: antibiotic activity (MIC); type: cell-based; settings: Candida albicans
Excerpt: as §1

[5] = test system: P. aerug; assay: antibiotic activity (MIC); type: cell-based
Excerpt: as §1

[6] = test system: human microvascular cells; assay: inhibition of endothelial cell cord formation in vitro; type: cell-based; further: key: +: Inhibition of angiogenesis; -: No inhibition of angiogenesis; Toxic; *: cell rounding @ 10 µg/ml
Excerpt: Endothelial cells have the capacity in vitro to form tubular aggregates resembling capillaries in various early stages of formation. This conversion occurs under relatively specific conditions, in which essential growth factors along with an effective substratum are provided. It has been shown that both the interaction of growth factors with the endothelial cell and its attachment to a substratum activate the NHE. The activation of this exchanger is believed to be required for subsequent morphologic transformation of the endothelial cell into a multicellular tubular structure.
To assess the effect of compounds on the cord-like structures formed by human microvascular cells when plated in the presence of VEGF (Vascular Endothelial Growth Factor) and basic fibroblast growth factor on a collagen matrix, a standard cord formation assay was used.

| Compound | similarity of pharmacologic activity in tadpole assay [1] | MIC [2] | MIC [3] | MIC ([4]; C. albicans, read-out: MIC) | MIC ([5]; P. aerug, read-out: MIC) | effect on endothelial cord formation ([6]; 1.0 μg/ml) | effect on endothelial cord formation ([6]; 10.0 μg/ml) | effect on endothelial cord formation ([6]; 0.1 μg/ml) | MIC [4] | MIC [5] |
| --- | --- | --- | --- | --- | --- | --- | --- | --- | --- | --- |
| C[C@H](CCC(=O)O)[C@H]1CC[C@H]2[C@@H]3C[C@@H](O)[C@H]4C[C@@H](NCCN)CC[C@]4(C)[C@H]3CC[C@]12C [Compound 433] | functionally similar to compound 1437 | > 256 mg/L | > 256 mg/L | > 256 mg/L | 128 mg/L (≈ 294 µM) |  |  |  |  |  |
| COC(=O)CC[C@@H](C)[C@H]1CC[C@H]2[C@@H]3CC[C@@H]4C[C@H](NCCCNCCCCNCCCN)CC[C@]4(C)[C@H]3C[C@H](O)[C@]12C [Compound 448] |  | 16 mg/L (≈ 27.1 µM) | 2 mg/L (≈ 3.38 µM) | 8 mg/L (≈ 13.5 µM) | 8 mg/L (≈ 13.5 µM) |  |  |  |  |  |
| C[C@H](CCC(=O)O)[C@H]1CC[C@H]2[C@@H]3CC[C@@H]4C[C@H](NCCCNCCCCNCCCN)CC[C@]4(C)[C@H]3C[C@H](O)[C@]12C [Compound 449] |  | 8 to 16 mg/L (≈ 13.9 to 27.7 µM) | 4 mg/L (≈ 6.93 µM) | 4 mg/L (≈ 6.93 µM) | 4 mg/L (≈ 6.93 µM) | - |  |  |  |  |
| COC(=O)CC[C@@H](C)[C@H]1CC[C@H]2[C@@H]3CC[C@H]4C[C@H](NCCCNCCCCNCCCN)CC[C@]4(C)[C@H]3CC[C@]12C [Compound 458] | pharmacologic activity similar to that seen for FX 3 | 32 mg/L (≈ 55.7 µM) | 4 mg/L (≈ 6.96 µM) | 2 mg/L (≈ 3.48 µM) | 64 mg/L (≈ 111 µM) |  |  |  |  |  |
| COC(=O)CC[C@@H](C)[C@H]1CC[C@H]2[C@@H]3CC[C@H]4C[C@@H](NCCCNCCCCNCCCN)CC[C@]4(C)[C@H]3CC[C@]12C [Compound 459] | pharmacologic activity similar to that seen for FX 3 | 32 mg/L (≈ 55.7 µM) | 1 to 2 mg/L (≈ 1.74 to 3.48 µM) | 2 mg/L (≈ 3.48 µM) | 64 mg/L (≈ 111 µM) |  |  |  |  |  |
| COC(=O)CC[C@@H](C)[C@H]1CC[C@H]2[C@@H]3C[C@@H](O)[C@H]4C[C@H](NCCCNCCCCNCCCN)CC[C@]4(C)[C@H]3CC[C@]12C [Compound 465] | pharmacologic activity similar to that seen for FX 3 | 32 mg/L (≈ 54.2 µM) | 2 to 4 mg/L (≈ 3.38 to 6.77 µM) | 4 mg/L (≈ 6.77 µM) | 128 mg/L (≈ 217 µM) |  |  |  |  |  |
| COC(=O)CC[C@@H](C)[C@H]1CC[C@H]2[C@@H]3C[C@@H](O)[C@H]4C[C@@H](NCCCNCCCCNCCCN)CC[C@]4(C)[C@H]3CC[C@]12C [Compound 466] | pharmacologic activity similar to that seen for FX 3 | 32 mg/L (≈ 54.2 µM) | 2 mg/L (≈ 3.38 µM) | 2 mg/L (≈ 3.38 µM) | 32 mg/L (≈ 54.2 µM) |  |  |  |  |  |
| C[C@H](CCC(=O)O)[C@H]1CC[C@H]2[C@@H]3C[C@@H](O)[C@H]4C[C@@H](NCCCNCCCCNCCCN)CC[C@]4(C)[C@H]3CC[C@]12C [Compound 467] |  | 16 mg/L (≈ 27.7 µM) | 16 mg/L (≈ 27.7 µM) | 4 mg/L (≈ 6.93 µM) | 8 mg/L (≈ 13.9 µM) | - | - |  |  |  |
| C=C(C)C(=O)CC[C@@H](C)[C@H]1CC[C@H]2[C@@H]3[C@H](O)C[C@H]4C[C@@H](NCCCNCCCCN)CC[C@]4(C)[C@H]3CC[C@]12C [Compound 1361] |  | 32 mg/L (≈ 58.8 µM) | 4 mg/L (≈ 7.35 µM) | 4 mg/L (≈ 7.35 µM) | 128 mg/L (≈ 235 µM) |  |  |  |  |  |
| CC(C)CCC[C@@H](C)[C@H]1CC[C@H]2[C@@H]3[C@H](O)C[C@H]4C[C@H](N)CC[C@]4(C)[C@H]3CC[C@]12C [Compound 1363] | potencies comparable to that of Fraction 1 | > 256 mg/L | 2 mg/L (≈ 4.95 µM) | 2 mg/L (≈ 4.95 µM) | > 256 mg/L |  |  |  |  |  |
| CC(C)CCC[C@@H](C)[C@H]1CC[C@H]2[C@@H]3[C@H](O)C[C@H]4C[C@@H](N)CC[C@]4(C)[C@H]3CC[C@]12C [Compound 1364] |  | > 256 mg/L | 2 mg/L (≈ 4.95 µM) | 2 mg/L (≈ 4.95 µM) | > 256 mg/L |  |  |  |  |  |
| CO[C@@H]1[C@H](OC(=O)/C=C/C=C/C=C/C=C/C(=O)O)CC[C@]2(CO2)[C@H]1[C@@]1(C)O[C@@H]1CC=C(C)C [Fumagillin, reference compound] |  |  |  |  |  |  | + | - |  |  |
| CC(C)C(O)CC[C@@H](C)[C@H]1CC[C@H]2[C@@H]3[C@H](O)C[C@H]4C[C@@H](NCCCNCCCCN)CC[C@]4(C)[C@H]3CC[C@]12C (stereo partly drawn) [MSI-1232] |  | 32 mg/L (≈ 58.4 µM) | 4 to 16 mg/L (≈ 7.3 to 29.2 µM) | 64 mg/L (≈ 117 µM) | 128 mg/L (≈ 234 µM) |  |  |  |  |  |
| CC(C)C(O)CC[C@@H](C)[C@H]1CC[C@H]2[C@@H]3[C@H](O)C[C@H]4C[C@@H](NCCCNCCCCN(C)C)CC[C@]4(C)[C@H]3CC[C@]12C (stereo partly drawn) [MSI-1239A] |  | 64 mg/L (≈ 111 µM) | 8 to 16 mg/L (≈ 13.9 to 27.8 µM) |  |  |  |  |  | 64 mg/L (≈ 111 µM) | 128 mg/L (≈ 222 µM) |

Source: patent publication US5763430A, “Method of treating a viral infection by administering a steroid compound” (priority 1995, dated 1998)
